Measurements from patent US8012711B2, “Methods of screening for compounds that reduce microbial resistance to fluoroquinolones” (priority 1999, dated 2011).
In brackets after ≈: the same amount, converted by molar mass. Like-named read-outs stand apart in the source and are kept apart here.

Legend:
Type in all cases: cell-based
[1] = tested on: Escherichia coli K-12 AG100, its Mar mutant AG112 and derived fluoroquinolone-resistant mutants (acrAB+); experiment: MIC by broth microdilution, acrAB+ strains; conditions: for MIC: Escherichia coli; for Ofx MIC: with AcrAB
Method: Selection of fluoroquinolone-resistant mutants. 1-AG100, 2°-AG100, 3*-AG100, 4*-AG100 and 1′-AG112, 2′-AG112, 3′-AG112 were sequential step mutants derived from AG 100 and AG112, respectively, on solid media. For each step, about 10^11 cells of an overnight culture were plated on several LB agar plates supplemented with increasing concentrations of OFL. Single colonies were further purified on OFL-supplemented agar plates. Mutant 2°-AG100 came out of one series, while mutants 3*- and 4*-AG100 came from a second series.
(§1) Susceptibility testing. MICs of selected antimicrobial agents were determined by a standard broth microdilution procedure with cation-adjusted Mueller-Hinton broth (Becton Dickinson, Cockeysville, Md.) and an inoculum of 5×10^5 CFU/ml according to NCCLS performance and interpretive guidelines (NCCLS. 1997. Methods for dilution antimicrobial susceptibility. Tests for bacteria that grow aerobically—Fourth Edition; Approved Standard. NCCLS document M7-A4 (ISBN 1-56238-309-4). NCCLS, 940 West Valley Road, Suite 1400, Wayne, Pa. 19087). Antimicrobial agents on the commercially available microtiter plates (Merlin Diagnostics GmbH, Bornheim, Germany) included the FQs ciprofloxacin (CIP), enoxacin, fleroxacin, nor-flo-xacin, ofloxacin (OFL), pefloxacin, sparfloxacin (SPX), and trovafloxacin (TVA). They also included tetracycline (TET), chloramphenicol (CML), trimethoprim (TMP), cefoxitin (CFOX), cefaclor, cefixim and loracarbef. MICs of bile salts were determined by a broth macrodilution procedure: sodium cholate and sodium deoxycholate were serially diluted twofold in LB broth and tubes inoculated at 5×10^5 CFU/ml. MICs of both antibiotics and bile salts were determined twice in independent experiments with reproducible results.

[2] = tested on: Escherichia coli AG100, AG112 and derived fluoroquinolone-resistant mutants with ΔacrAB; experiment: MIC by broth microdilution, AcrAB-deleted strains; conditions: for MIC: Escherichia coli; for Ofx MIC: AcrAB knocked out
Method: as §1
P1 transduction. […] DNA sequencing.

[3] = tested on: Escherichia coli K-12 AG100, its Mar mutant AG112 and derived fluoroquinolone-resistant mutants (acrAB+); experiment: MIC by broth microdilution, acrAB+ strains
[4] = strain 1-AG100, acrAB+, read-out: MIC
[5] = strain 1-AG112 (1′-AG112), acrAB+, read-out: MIC
[6] = strain 2-AG100 (2°-AG100), acrAB+, read-out: MIC
[7] = strain 2-AG112 (2′-AG112), acrAB+, read-out: MIC
[8] = strain 3*-AG100, acrAB+, read-out: MIC
[9] = strain 3-AG112 (3′-AG112), acrAB+, read-out: MIC
[10] = strain 4*-AG100, acrAB+, read-out: MIC
[11] = strain AG100, acrAB+, read-out: MIC
[12] = strain AG112 (Mar mutant), acrAB+
[13] = strain 1-AG112 (1′-AG112), ΔacrAB
[14] = strain 2-AG100 (2°-AG100), ΔacrAB
[15] = strain 2-AG112 (2′-AG112), ΔacrAB
[16] = strain 3-AG112 (3′-AG112), ΔacrAB

`CO[C@@]1(NC(=O)Cc2cccs2)C(=O)N2C(C(=O)O)=C(COC(N)=O)CS[C@@H]21` [CFOX, cefoxitin] gave an MIC [1, 4] of 4 µg/mL (≈ 9.36 µM), an MIC [1, 5] of 16 µg/mL (≈ 37.4 µM) and an MIC [1, 6] of 16 µg/mL (≈ 37.4 µM). The MIC [1, 7] was 32 µg/mL (≈ 74.9 µM), the MIC [1, 8] was 32 µg/mL (≈ 74.9 µM) and the MIC [1, 9] was 64 µg/mL (≈ 150 µM). The MIC [1, 10] was 32 µg/mL (≈ 74.9 µM), the MIC [1, 11] was 4 µg/mL (≈ 9.36 µM) and the MIC [1, 12] was 32 µg/mL (≈ 74.9 µM). For the same molecule, the MIC ([2]; strain 1-AG100, ΔacrAB) was 0.5 µg/mL (≈ 1.17 µM), the MIC [2, 13] was 1 µg/mL (≈ 2.34 µM) and the MIC [2, 14] was 0.5 µg/mL (≈ 1.17 µM). The MIC [2, 15] was 0.5 µg/mL (≈ 1.17 µM), the MIC ([2]; strain 3*-AG100, ΔacrAB) was 0.5 µg/mL (≈ 1.17 µM) and the MIC [2, 16] was 0.5 µg/mL (≈ 1.17 µM). The MIC ([2]; strain 4*-AG100, ΔacrAB) was 1 µg/mL (≈ 2.34 µM), the MIC ([2]; strain AG100, ΔacrAB) was 0.5 µg/mL (≈ 1.17 µM) and the MIC ([2]; strain AG112, ΔacrAB) was 1 µg/mL (≈ 2.34 µM).

`O=C(N[C@H](CO)[C@H](O)c1ccc([N+](=O)[O-])cc1)C(Cl)Cl` [CML, chloramphenicol] was tested, and the MIC [1, 4] was 4 µg/mL (≈ 12.4 µM), the MIC [1, 5] was 32 µg/mL (≈ 99 µM) and the MIC [1, 6] was 16 µg/mL (≈ 49.5 µM). For the same molecule, the MIC [1, 7] was 64 µg/mL (≈ 198 µM), the MIC [1, 8] was 32 µg/mL (≈ 99 µM) and the MIC [1, 9] was 64 µg/mL (≈ 198 µM). The MIC [1, 10] was 64 µg/mL (≈ 198 µM), the MIC [1, 11] was 4 µg/mL (≈ 12.4 µM) and the MIC [1, 12] was 16 µg/mL (≈ 49.5 µM). It also gave an MIC ([2]; strain 1-AG100, ΔacrAB) of 1 µg/mL (≈ 3.09 µM), an MIC [2, 13] of 1 µg/mL (≈ 3.09 µM) and an MIC [2, 14] of 1 µg/mL (≈ 3.09 µM). The MIC [2, 15] was 1 µg/mL (≈ 3.09 µM), the MIC ([2]; strain 3*-AG100, ΔacrAB) was 1 µg/mL (≈ 3.09 µM) and the MIC [2, 16] was 1 µg/mL (≈ 3.09 µM). For the same molecule, the MIC ([2]; strain 4*-AG100, ΔacrAB) was 1 µg/mL (≈ 3.09 µM), the MIC ([2]; strain AG100, ΔacrAB) was 1 µg/mL (≈ 3.09 µM) and the MIC ([2]; strain AG112, ΔacrAB) was 1 µg/mL (≈ 3.09 µM).

`CC1COc2c(N3CCN(C)CC3)c(F)cc3c(=O)c(C(=O)O)cn1c23` (centres unmarked) [OFL, ofloxacin] was tested, and the “Enhancement of ofx resistance by in-vitro amplification” value ([1]; AG100, four steps, 0.03 mg/l to 4 mg/l) was 128 fold, the “Ofx MIC” value ([1]; AG100 series, 1st step mutant) was 0.25 µg/mL and the “Ofx MIC” value ([1]; AG100 series, 2nd step mutant) was 1.0 µg/mL. The “Ofx MIC” value ([1]; AG100 series, 3rd step mutant) was 2.0 µg/mL, the “Ofx MIC” value ([1]; AG100 series, 4th step mutant) was 4.0 µg/mL and the “Ofx MIC” value ([1]; AG100 series, parent) was 0.03 µg/mL. The “Ofx MIC” value ([1]; AG102 series, 2nd step mutant) was 4.0 µg/mL, the “Ofx MIC” value ([1]; AG102 series, 3rd step mutant) was 8.0 µg/mL and the “Ofx MIC” value ([1]; AG102 series, parent (Mar mutant)) was 0.125 µg/mL. It also gave an MIC [1, 4] of 0.25 µg/mL (≈ 0.692 µM), an MIC [1, 5] of 1 µg/mL (≈ 2.77 µM) and an MIC [1, 6] of 1 µg/mL (≈ 2.77 µM). It also gave an MIC [1, 7] of 4 µg/mL (≈ 11.1 µM), an MIC [1, 8] of 2 µg/mL (≈ 5.53 µM) and an MIC [1, 9] of 8 µg/mL (≈ 22.1 µM). It also gave an MIC [1, 10] of 4 µg/mL (≈ 11.1 µM), an MIC [1, 11] of 0.03 µg/mL (≈ 0.083 µM) and an MIC [1, 12] of 0.125 µg/mL (≈ 0.346 µM). The “Fold increase of OFL MIC” value ([1]; strain 1-AG100, as compared to AG100 (wild-type)) was 8 fold, the “Fold increase of OFL MIC” value ([1]; strain 1-AG112 (1′-AG112), as compared to AG100 (wild-type)) was 32 fold and the “Fold increase of OFL MIC” value ([1]; strain 2-AG100 (2°-AG100), as compared to AG100 (wild-type)) was 32 fold. The “Fold increase of OFL MIC” value ([1]; strain 2-AG112, as compared to AG100 (wild-type)) was 128 fold, the “Fold increase of OFL MIC” value ([1]; strain 3*-AG100, as compared to AG100 (wild-type)) was 64 fold and the “Fold increase of OFL MIC” value ([1]; strain 3-AG112, as compared to AG100 (wild-type)) was 256 fold. For the same molecule, the “Fold increase of OFL MIC” value ([1]; strain 4*-AG100, as compared to AG100 (wild-type)) was 128 fold, the “Fold increase of OFL MIC” value ([1]; strain AG112, as compared to AG100 (wild-type)) was 4 fold and the “Increase of resistance to OFL by the first mutation step” value ([1]; {}) was 8 fold. The “Ofx MIC” value ([2]; AG100 series, 1st step mutant) was 0.06 µg/mL, the “Ofx MIC” value ([2]; AG100 series, 2nd step mutant) was 0.06 µg/mL and the “Ofx MIC” value ([2]; AG100 series, 3rd step mutant) was 0.06 µg/mL. For the same molecule, the “Ofx MIC” value ([2]; AG100 series, 4th step mutant) was 0.125 µg/mL, the “Ofx MIC” value ([2]; AG100 series, parent) was under 0.015 µg/mL and the “Ofx MIC” value ([2]; AG102 series, 1st step mutant) was 0.06 µg/mL. For the same molecule, the “Ofx MIC” value ([2]; AG102 series, 2nd step mutant) was 0.06 µg/mL, the “Ofx MIC” value ([2]; AG102 series, 3rd step mutant) was 0.06 µg/mL and the “Ofx MIC” value ([2]; AG102 series, parent) was under 0.015 µg/mL. It also gave an MIC ([2]; strain 1-AG100, ΔacrAB) of 0.06 µg/mL (≈ 0.166 µM), an MIC [2, 13] of 0.06 µg/mL (≈ 0.166 µM) and an MIC [2, 14] of 0.06 µg/mL (≈ 0.166 µM). For the same molecule, the MIC [2, 15] was 0.06 µg/mL (≈ 0.166 µM), the MIC ([2]; strain 3*-AG100, ΔacrAB) was 0.06 µg/mL (≈ 0.166 µM) and the MIC [2, 16] was 0.06 µg/mL (≈ 0.166 µM). For the same molecule, the MIC ([2]; strain 4*-AG100, ΔacrAB) was 0.125 µg/mL (≈ 0.346 µM), the MIC ([2]; strain AG100, ΔacrAB) was at most 0.015 µg/mL and the MIC ([2]; strain AG112, ΔacrAB) was at most 0.015 µg/mL. The “Enhancement of ofx resistance by in-vitro amplification” value ([3]; AG102, three steps, 0.125 mg/l to 8 mg/l) was 64 fold and the “Ofx MIC” value ([3]; AG102 series, 1st step mutant, with AcrAB) was 1.0 µg/mL.
